From PubChem BioAssay AID2060494 (Molecular Pharmacology Branch, DTP, NCI, 2025)

Test system: 435261-313-R-J1-PDC complex spheroid viability
Assay: Anticancer human tumor 435261-313-R-J1-PDC patient-derived colon adenocarcinoma cell line growth inhibition [GQUAD]
Conditions: for IC50: curve of first compound; for viability, T/C: stronger effect = lower value
Outline: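 Multi-cell-type spheroids of tumor cells with HUVEC and mesenchymal stem cells, treated with drug combinations. Concentrations descend in half-log steps from near clinical Cmax, or from 10 microM where Cmax is unknown; viability read-out.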

[1] = second compound 0.0316 µM, first compound 0.0316 µM
[2] = second compound 0.0316 µM, first compound 0.316 µM
[3] = second compound 0.1 µM, first compound 0.0316 µM
[4] = second compound 0.1 µM, first compound 0.316 µM
[5] = second compound 0.316 µM, first compound 0.0316 µM
[6] = second compound 0.316 µM, first compound 0.316 µM
[7] = second compound 1 µM, first compound 0.0316 µM
[8] = second compound 1 µM, first compound 0.316 µM
[9] = second compound 3.16 µM, first compound 0.0316 µM
[10] = second compound 3.16 µM, first compound 0.316 µM
[11] = second compound 10 µM, first compound 0.0316 µM
[12] = second compound 10 µM, first compound 0.316 µM
[13] = second compound 0.0316 µM, first compound 0.1 µM
[14] = second compound 0.0316 µM, first compound 1 µM
[15] = second compound 0.0316 µM, first compound 3.16 µM
[16] = second compound 0.0316 µM, first compound 10 µM
[17] = second compound 0.1 µM, first compound 0.1 µM
[18] = second compound 0.1 µM, first compound 1 µM
[19] = second compound 0.1 µM, first compound 3.16 µM
[20] = second compound 0.1 µM, first compound 10 µM
[21] = second compound 0.316 µM, first compound 0.1 µM
[22] = second compound 0.316 µM, first compound 1 µM
[23] = second compound 0.316 µM, first compound 3.16 µM
[24] = second compound 0.316 µM, first compound 10 µM
[25] = second compound 1 µM, first compound 0.1 µM
[26] = second compound 1 µM, first compound 1 µM
[27] = second compound 1 µM, first compound 3.16 µM
[28] = second compound 1 µM, first compound 10 µM
[29] = second compound 3.16 µM, first compound 0.1 µM
[30] = second compound 3.16 µM, first compound 1 µM
[31] = second compound 3.16 µM, first compound 3.16 µM
[32] = second compound 3.16 µM, first compound 10 µM
[33] = second compound 10 µM, first compound 0.1 µM
[34] = second compound 10 µM, first compound 1 µM
[35] = second compound 10 µM, first compound 3.16 µM
[36] = second compound 10 µM, first compound 10 µM
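Further: spheroids exposed to the agents for seven days before readout.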
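Wherever viability, T/C is given: percent of vehicle control viability with DMSO wells as 100%.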

## CCc1c2c(nc3ccc(O)cc13)-c1cc3c(c(=O)n1C2)COC(=O)[C@]3(O)CC + Cc1[nH]c2ccc(F)cc2c1-c1nc2c3cccnc3c3ncccc3c2[nH]1
Second compound 0.0316 µM
  IC50: 21.2 nM
Second compound 0.1 µM
  IC50: 23.2 nM
Second compound 0.316 µM
  IC50: 23.8 nM
Second compound 1 µM
  IC50: < 0.999 nM
Second compound 3.16 µM
  IC50: < 0.999 nM
Second compound 10 µM
  IC50: < 0.999 nM
Second compound 0.0316 µM, first compound 0.000999 µM
  viability, T/C: 119%
Second compound 0.0316 µM, first compound 0.00316 µM
  viability, T/C: 62.1%
Second compound 0.0316 µM, first compound 0.00999 µM
  viability, T/C: 67%
[1]
  viability, T/C: 46.7%
Second compound 0.0316 µM, first compound 0.0999 µM
  viability, T/C: 51.3%
[2]
  viability, T/C: 33.8%
Second compound 0.1 µM, first compound 0.000999 µM
  viability, T/C: 93.9%
Second compound 0.1 µM, first compound 0.00316 µM
  viability, T/C: 64.4%
Second compound 0.1 µM, first compound 0.00999 µM
  viability, T/C: 58.5%
[3]
  viability, T/C: 49.4%
Second compound 0.1 µM, first compound 0.0999 µM
  viability, T/C: 46.5%
[4]
  viability, T/C: 33.9%
Second compound 0.316 µM, first compound 0.000999 µM
  viability, T/C: 53.6%
Second compound 0.316 µM, first compound 0.00316 µM
  viability, T/C: 51.5%
Second compound 0.316 µM, first compound 0.00999 µM
  viability, T/C: 53.2%
[5]
  viability, T/C: 49.1%
Second compound 0.316 µM, first compound 0.0999 µM
  viability, T/C: 31.8%
[6]
  viability, T/C: 29.7%
Second compound 1 µM, first compound 0.000999 µM
  viability, T/C: 45.6%
Second compound 1 µM, first compound 0.00316 µM
  viability, T/C: 55.6%
Second compound 1 µM, first compound 0.00999 µM
  viability, T/C: 32.9%
[7]
  viability, T/C: 34%
Second compound 1 µM, first compound 0.0999 µM
  viability, T/C: 33.1%
[8]
  viability, T/C: 23.8%
Second compound 3.16 µM, first compound 0.000999 µM
  viability, T/C: 32.8%
Second compound 3.16 µM, first compound 0.00316 µM
  viability, T/C: 30.6%
Second compound 3.16 µM, first compound 0.00999 µM
  viability, T/C: 35.4%
[9]
  viability, T/C: 24%
Second compound 3.16 µM, first compound 0.0999 µM
  viability, T/C: 20.1%
[10]
  viability, T/C: 21.2%
Second compound 10 µM, first compound 0.000999 µM
  viability, T/C: 22.2%
Second compound 10 µM, first compound 0.00316 µM
  viability, T/C: 18.8%
Second compound 10 µM, first compound 0.00999 µM
  viability, T/C: 25.3%
[11]
  viability, T/C: 16.7%
Second compound 10 µM, first compound 0.0999 µM
  viability, T/C: 16.1%
[12]
  viability, T/C: 17.3%

## COc1ccc([C@@H](O)c2cc(-c3ncnc4cc(N5CCOCC5)ccc34)c(F)cc2Cl)nn1 + Cc1[nH]c2ccc(F)cc2c1-c1nc2c3cccnc3c3ncccc3c2[nH]1
Second compound 0.0316 µM
  IC50: 1080 nM
Second compound 0.1 µM
  IC50: 4220 nM
Second compound 0.316 µM
  IC50: 3420 nM
Second compound 1 µM
  IC50: 2810 nM
Second compound 3.16 µM
  IC50: < 31.6 nM
Second compound 10 µM
  IC50: < 31.6 nM
[1]
  viability, T/C: 88.7%
[13]
  viability, T/C: 64.5%
[2]
  viability, T/C: 88.6%
[14]
  viability, T/C: 50.8%
[15]
  viability, T/C: 44.5%
[16]
  viability, T/C: 30.4%
[3]
  viability, T/C: 99%
[17]
  viability, T/C: 97.6%
[4]
  viability, T/C: 106%
[18]
  viability, T/C: 70.2%
[19]
  viability, T/C: 62.7%
[20]
  viability, T/C: 24.5%
[5]
  viability, T/C: 63.4%
[21]
  viability, T/C: 99.4%
[6]
  viability, T/C: 70.5%
[22]
  viability, T/C: 87.9%
[23]
  viability, T/C: 51.8%
[24]
  viability, T/C: 25.2%
[7]
  viability, T/C: 67.8%
[25]
  viability, T/C: 65.3%
[8]
  viability, T/C: 82%
[26]
  viability, T/C: 45.2%
[27]
  viability, T/C: 55.4%
[28]
  viability, T/C: 20%
[9]
  viability, T/C: 45.2%
[29]
  viability, T/C: 30.1%
[10]
  viability, T/C: 35.5%
[30]
  viability, T/C: 36.4%
[31]
  viability, T/C: 13.6%
[32]
  viability, T/C: 10.9%
[11]
  viability, T/C: 19.8%
[33]
  viability, T/C: 21.9%
[12]
  viability, T/C: 27.1%
[34]
  viability, T/C: 18.7%
[35]
  viability, T/C: 13.2%
[36]
  viability, T/C: 8.61%

## Cc1cccc(N(C)C(=O)C2C(O)CCN2c2nc(C)cc(C(F)(F)F)c2C#N)c1 (stereo not drawn) + Cc1[nH]c2ccc(F)cc2c1-c1nc2c3cccnc3c3ncccc3c2[nH]1
Second compound 0.0316 µM
  IC50: > 10000 nM
Second compound 0.1 µM
  IC50: > 10000 nM
Second compound 0.316 µM
  IC50: > 10000 nM
Second compound 1 µM
  IC50: > 10000 nM
Second compound 3.16 µM
  IC50: < 31.6 nM
Second compound 10 µM
  IC50: < 31.6 nM
[1]
  viability, T/C: 123%
[13]
  viability, T/C: 111%
[2]
  viability, T/C: 121%
[14]
  viability, T/C: 91.4%
[15]
  viability, T/C: 97.2%
[16]
  viability, T/C: 92.3%
[3]
  viability, T/C: 106%
[17]
  viability, T/C: 141%
[4]
  viability, T/C: 138%
[18]
  viability, T/C: 135%
[19]
  viability, T/C: 117%
[20]
  viability, T/C: 113%
[5]
  viability, T/C: 76.1%
[21]
  viability, T/C: 105%
[6]
  viability, T/C: 104%
[22]
  viability, T/C: 104%
[23]
  viability, T/C: 117%
[24]
  viability, T/C: 115%
[7]
  viability, T/C: 95.2%
[25]
  viability, T/C: 86.7%
[8]
  viability, T/C: 152%
[26]
  viability, T/C: 129%
[27]
  viability, T/C: 117%
[28]
  viability, T/C: 59%
[9]
  viability, T/C: 30.2%
[29]
  viability, T/C: 41.4%
[10]
  viability, T/C: 38.5%
[30]
  viability, T/C: 44.9%
[31]
  viability, T/C: 47.7%
[32]
  viability, T/C: 42.9%
[11]
  viability, T/C: 27.1%
[33]
  viability, T/C: 27.7%
[12]
  viability, T/C: 33.7%
[34]
  viability, T/C: 27.1%
[35]
  viability, T/C: 28.7%
[36]
  viability, T/C: 23.5%

## Nc1ccn(C2OC(CO)C(O)C2(F)F)c(=O)n1 (stereo not drawn) + Cc1[nH]c2ccc(F)cc2c1-c1nc2c3cccnc3c3ncccc3c2[nH]1
Second compound 0.0316 µM
  IC50: 161 nM
Second compound 0.1 µM
  IC50: < 31.6 nM
Second compound 0.316 µM
  IC50: < 31.6 nM
Second compound 1 µM
  IC50: < 31.6 nM
Second compound 3.16 µM
  IC50: < 31.6 nM
Second compound 10 µM
  IC50: < 31.6 nM
[1]
  viability, T/C: 74%
[13]
  viability, T/C: 50.2%
[2]
  viability, T/C: 47.9%
[14]
  viability, T/C: 42%
[15]
  viability, T/C: 57.9%
[16]
  viability, T/C: 51.1%
[3]
  viability, T/C: 53.2%
[17]
  viability, T/C: 45.5%
[4]
  viability, T/C: 42.1%
[18]
  viability, T/C: 49.5%
[19]
  viability, T/C: 50.3%
[20]
  viability, T/C: 51.9%
[5]
  viability, T/C: 39.5%
[21]
  viability, T/C: 50%
[6]
  viability, T/C: 46.3%
[22]
  viability, T/C: 44%
[23]
  viability, T/C: 48.1%
[24]
  viability, T/C: 33.1%
[7]
  viability, T/C: 50.4%
[25]
  viability, T/C: 40.6%
[8]
  viability, T/C: 42.1%
[26]
  viability, T/C: 34.7%
[27]
  viability, T/C: 41.8%
[28]
  viability, T/C: 35.5%
[9]
  viability, T/C: 26.7%
[29]
  viability, T/C: 31.9%
[10]
  viability, T/C: 25.5%
[30]
  viability, T/C: 24.7%
[31]
  viability, T/C: 28.9%
[32]
  viability, T/C: 25.9%
[11]
  viability, T/C: 16.3%
[33]
  viability, T/C: 19.1%
[12]
  viability, T/C: 18%
[34]
  viability, T/C: 20.2%
[35]
  viability, T/C: 15.7%
[36]
  viability, T/C: 18.7%
